Test results reported in the supplement of paper PMC10307832.

How the values were obtained:
Assay in all cases: relative viability (nuclei count vs DMSO), 5 days (fraction); higher = more cells survive
AT-7519 + AZD7762 = compound: O=C(NC1CCNCC1)c1n[nH]cc1NC(=O)c1c(Cl)cccc1Cl [AT-7519] + NC(=O)Nc1cc(-c2cccc(F)c2)sc1C(=O)N[C@H]1CCCNC1 [AZD7762] (partner 0.2 µM)
Summary of the method: (§1)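 For relative viability, nuclei counts in treated wells were divided by those in vehicle wells. Lung cancer cell lines had been pin-tool dosed in 1536-well plates the day after seeding and cultured for 5 days, then fixed and stained in one step (final 0.05% Triton X-100, 1% formaldehyde, 1 ug/ml Hoechst) and imaged at 4×. Doses were one drug alone or a fixed anchor-drug dose plus five library-drug doses (not always all listed) in √10 steps, and values are duplicate-plate medians.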

[1] = compound: C1=CC2=C(C=C(C(=C2N=C1)O)N=NC3=CC4=C(C=C3)C=C(C=C4)S(=O)(=O)O)S(=O)(=O)O + CCNC(=O)c1noc(-c2cc(C(C)C)c(O)cc2O)c1-c1ccc(CN2CCOCC2)cc1 [Luminespib] (partner 0.01 µM)
Summary of the method: as §1

AT-7519 + OSI-027 = compound: O=C(NC1CCNCC1)c1n[nH]cc1NC(=O)c1c(Cl)cccc1Cl [AT-7519] + COc1cccc2cc(-c3nc([C@H]4CC[C@H](C(=O)O)CC4)n4ncnc(N)c34)[nH]c12 [OSI-027] (partner 0.5 µM)
Summary of the method: as §1

[2] = compound: C1=CC2=C(C=C(C(=C2N=C1)O)N=NC3=CC4=C(C=C3)C=C(C=C4)S(=O)(=O)O)S(=O)(=O)O + CS(=O)(=O)N1CCN(Cc2cc3nc(-c4cccc5[nH]ncc45)nc(N4CCOCC4)c3s2)CC1 [Pictilisib] (partner 1 µM)
Summary of the method: as §1

Row | Cell Line | relative viability (AT-7519 + AZD7762; first compound 0.01 µM) | relative viability (AT-7519 + AZD7762; first compound 0.03162 µM) | relative viability (AT-7519 + AZD7762; first compound 0.3162 µM) | relative viability (AT-7519 + AZD7762; first compound 1 µM) | relative viability ([1]; first compound 0.08 µM) | relative viability ([1]; first compound 0.253 µM) | relative viability ([1]; first compound 0.8 µM) | relative viability ([1]; first compound 2.53 µM) | relative viability ([1]; first compound 8 µM) | relative viability (AT-7519 + OSI-027; first compound 0.01 µM) | relative viability (AT-7519 + OSI-027; first compound 0.03162 µM) | relative viability (AT-7519 + OSI-027; first compound 0.3162 µM) | relative viability (AT-7519 + OSI-027; first compound 1 µM) | relative viability ([2]; first compound 0.08 µM) | relative viability ([2]; first compound 0.253 µM) | relative viability ([2]; first compound 0.8 µM) | relative viability ([2]; first compound 2.53 µM) | relative viability ([2]; first compound 8 µM)
1 | NCI-H1734 | 0.519 | 0.493 | 0.655 | 0.453 | 0.166 | 0.182 | 0.236 | 0.182 | 0.193 | 0.521 | 0.543 | 0.445 | 0.397 | 0.565 | 0.434 | 0.426 | 0.492 | 0.455
2 | NCI-H1755 | 0.427 | 0.461 | 0.629 | 0.428 | 0.431 | 0.378 | 0.395 | 0.41 | 0.472 | 0.66 | 0.655 | 0.705 | 0.699 | 0.407 | 0.44 | 0.446 | 0.47 | 0.246
3 | NCI-H1792 | 0.759 | 0.554 | 0.571 | 0.467 | 0.481 | 0.418 | 0.58 | 0.423 | 0.331 |  |  | 0.869 | 0.791 | 0.304 | 0.26 | 0.295 | 0.286 | 0.302
4 | NCI-H1793 | 0.578 | 0.573 | 0.409 | 0.543 | 0.22 | 0.189 | 0.184 | 0.264 | 0.16 | 0.229 | 0.254 | 0.285 | 0.247 | 0.313 | 0.323 |  | 0.291 | 0.369
5 | NCI-H1915 | 0.704 | 0.689 | 0.773 | 0.782 | 0.842 | 0.773 | 0.877 | 0.78 | 0.82 | 0.406 | 0.598 | 0.521 | 0.394 | 0.883 | 0.97 | 0.856 | 0.95 | 0.952
6 | NCI-H1944 | 0.528 | 0.472 | 0.699 | 0.479 | 0.826 | 0.696 | 0.802 | 0.741 | 0.721 | 0.436 | 0.402 | 0.367 | 0.328 | 0.333 | 0.348 | 0.327 | 0.345 | 0.332
7 | NCI-H1975 | 0.691 | 0.744 | 0.76 | 0.638 | 0.194 | 0.2 | 0.206 | 0.264 | 0.252 | 0.827 | 0.778 | 0.503 | 0.191 | 0.327 | 0.299 | 0.268 | 0.305 | 0.286
8 | NCI-H1993 | 0.671 | 0.637 | 0.736 | 0.38 | 0.83 | 0.865 | 0.853 | 1.09 | 0.589 | 0.569 | 0.494 | 0.49 | 0.563 | 0.887 | 0.802 | 0.938 | 0.921 | 0.782
9 | NCI-H2085 | 0.977 | 0.984 | 0.986 | 1.02 | 0.409 | 0.419 | 0.426 | 0.367 | 0.44 | 0.739 | 0.662 | 0.626 | 0.651 | 0.38 | 0.465 | 0.406 | 0.571 | 0.497
10 | NCI-H2087 | 1.48 | 1.13 | 1.49 | 0.58 | 0.169 | 0.191 | 0.153 | 0.231 | 0.237 | 0.729 | 0.649 | 0.493 | 0.151 | 1.07 | 0.863 | 0.77 | 0.945 | 0.909
11 | NCI-H2126 | 1 | 1.1 | 1.04 | 1.13 | 0.898 | 0.899 | 0.89 | 1.04 | 0.86 | 0.668 | 0.665 | 0.575 | 0.688 | 0.505 | 0.518 | 0.506 | 0.522 | 0.523
12 | NCI-H2170 | 0.906 | 0.892 | 0.954 | 0.75 | 0.83 | 0.63 | 0.672 | 0.731 | 0.895 | 0.782 | 0.685 | 0.687 | 0.719 | 0.315 | 0.4 | 0.312 | 0.306 | 0.308
13 | NCI-H2347 | 0.625 | 0.843 | 0.725 | 0.469 | 0.77 | 0.523 | 0.36 | 0.824 | 0.317 | 0.457 | 0.389 | 0.358 | 0.229 | 0.651 | 0.585 | 0.541 | 0.657 | 0.683
14 | NCI-H2405 | 0.732 | 0.724 | 0.683 | 0.527 | 0.891 | 0.79 | 0.632 | 0.827 | 0.753 | 0.593 | 0.655 | 0.595 | 0.478 | 0.496 | 0.432 | 0.33 | 0.418 | 0.28
15 | NCI-H3122 | 1.01 | 1.11 | 1.02 | 0.752 | 0.0606 | 0.111 | 0.0925 | 0.0947 | 0.102 | 1.09 | 0.871 | 0.357 | 0.152 | 0.629 | 0.552 | 0.555 | 0.616 | 0.638
16 | PC-3 [JPC-3] | 0.908 | 0.844 | 0.671 | 0.992 | 0.576 | 0.708 | 0.663 | 0.729 | 0.761 | 0.706 | 0.904 | 0.697 | 0.696 | 0.79 | 0.771 | 0.663 | 0.713 | 0.694
17 | PC-14 | 0.416 | 0.261 | 0.38 | 0.44 | 0.141 | 0.139 | 0.152 | 0.148 | 0.0819 | 0.725 | 0.701 | 0.691 | 0.125 | 0.845 | 0.682 | 0.621 | 0.585 | 0.673
18 | RERF-LC-KJ | 0.87 | 0.698 | 1.18 | 1.03 | 1.38 | 1.18 | 1.18 | 1.37 | 1.38 | 0.572 | 0.53 | 0.54 | 0.25 | 0.623 | 0.648 | 0.588 | 0.56 | 0.543
